Measured values published in patent US9180139B2, “Regulator, pharmaceutical composition encompassing the regulator and application thereof” (NATIONAL CHENG KUNG UNIVERSITY, priority 2012, dated 2015).

Columns and labels:
[1] = system: EMP2 mRNA expression of RT4 bladder cancer cell line; test: Northern blotting of EMP2 mRNA expression in RT4 cells treated with genistein; type: cell-based; details: genistein 10 μg/mL, 24 hours, normalized to β-actin
Experimental: FIG. 1A is a northern blotting figure showing the respective EMP2 mRNA expressions of RT4 bladder cancer cell line treated with genistein (10 μg/mL) for 24 hours (Isoflavone treatment group) or not (Control group).
Please refer to FIG. 1A which is a northern blotting figure. […] That is, genistein, the isoflavone compound, can up-regulate the EMP2 mRNA expression of RT4 cells.

[2] = system: EMP2 mRNA expression of TSGH8301 human bladder cancer cell line; test: Relative quantification of EMP2 mRNA expression in TSGH8301 cells incubated with genistein; type: cell-based
Experimental: TSGH8301 cell lines were initially incubated with mediums containing 2 μM, 5 μM and 10 μM of genistein, respectively, and the respective EMP2 mRNA expressions was measured at sixth day, wherein mRNA expressions of housekeeping gene was taken as the baseline control.
TSGH8301 cells were initially incubated with medium containing 15 μM of genistein and EMP2 mRNA expressions were measured at second, fourth and sixth days, respectively, wherein mRNA expressions of housekeeping gene of TSGH8301 cell lines were taken as the baseline control. With increase of incubating durations, EMP2 mRNA expression of TSGH8301 cells incubated with genistein was increased as shown in FIG. 3.

β3 integrin = test: Expression of β3 integrin after shRNA transfection; type: cell-based, human; details: TSGH8301 and TSGH8301/EMP2-2 cell lines
Description: (§1) These two cell lines were transfected with small hairpin RNAs (shRNA) against αV and β3 integrins, respectively. In brief, TSGH8301 and TSGH8301/EMP2-2 cell lines were transfected with shRNAs of A1 or C1 against β3 integrin, shRNAs of H1 or G1 against αV integrin. The mRNA of EMP2 and TBP of these transfected cell lines were harvested for quantification by real-time PCR. The sequences of shRNAs of A1 (SEQ ID NO. 1), C1 (SEQ ID NO. 2), H1 (SEQ ID NO. 3) and G1 (SEQ ID NO. 4) are 5′-[…] CATAATGTTTTT-3′, 5′-[…] AACAGGGTTTTT-3′, 5′-[…] GTAAGGCTTTTTG-3′ and 5′-[…] TCCCTCGTTTTTG-3′, respectively. After transfections of shRNAs of A1, C1, H1 and G1, expressions of αV and β3 integrins in TSGH8301 and TSGH8301/EMP2-2 cell lines were repressed correspondingly. Besides, mRNA expression of EMP2 and TBP in TSGH8301 and TSGH8301/EMP2-2 cell lines without transfection was taken as controls (Ctl).

αV integrin = test: Expression of αV integrin after shRNA transfection; type: cell-based, human; details: TSGH8301 and TSGH8301/EMP2-2 cell lines
Description: as §1

| Compound | expression of β3 integrin after shRNA transfection (β3 integrin) | expression of αV integrin after shRNA transfection (αV integrin) | other results |
| --- | --- | --- | --- |
| O=c1c(-c2ccc(O)cc2)coc2cc(O)cc(O)c12 [genistein] |  |  | EMP2 mRNA expression compared with Control group (defined as 1) [1]: up to 3.5 times; EMP2 mRNA expression, dependence on genistein concentration ([2]; 2 μM, 5 μM and 10 μM genistein, measured at sixth day, P=0.03 two way ANOVA): dose-dependent up-regulation; EMP2 mRNA expression, dependence on incubating duration ([2]; 15 μM genistein, measured at second, fourth and sixth days, P=0.03 one way ANOVA): time-dependent up-regulation |
| A1: shRNA against β3 integrin, 5′-CCGGCATTATGTTTACAGAGGACAACTCGAGTTGTCCTCTGTAAA CATAATGTTTTT-3′ (CCGGCATTATGTTTACAGAGGACAACTCGAGTTGTCCTCTGTAAACATAATGTTTTT) | repressed |  |  |
| C1: shRNA against β3 integrin, 5′-CCGGCCCTGTTACAATATGAAGAATCTCGAGATTCTTCATATTGT AACAGGGTTTTT-3′ (CCGGCCCTGTTACAATATGAAGAATCTCGAGATTCTTCATATTGTAACAGGGTTTTT) | repressed |  |  |
| G1: shRNA against αV integrin, 5′-CCGGCGAGGGAAGTTACTTCGGATTCTCGAGAATCCGAAGTAACT TCCCTCGTTTTTG-3′ (CCGGCGAGGGAAGTTACTTCGGATTCTCGAGAATCCGAAGTAACTTCCCTCGTTTTTG) |  | repressed |  |
| H1: shRNA against αV integrin, 5′-CCGGGCCTTACAAATACAACAACAACTCGAGTTGTTGTTGTATTT GTAAGGCTTTTTG-3′ (CCGGGCCTTACAAATACAACAACAACTCGAGTTGTTGTTGTATTTGTAAGGCTTTTTG) |  | repressed |  |
